Results on 13 compounds are retold here after ChEMBL document CHEMBL1938230, “6-Position optimization of tricyclic 4-quinolone-based inhibitors of glycogen synthase kinase-3β: discovery of nitrile derivatives with picomolar potency” (Bioorg Med Chem Lett, 2012).

For orientation: pIC50 means −log10 of the IC50, conventionally taken in molar units. Read a low pIC50 as a large IC50.

The target of data set [1] is Glycogen synthase kinase-3 beta (Homo sapiens, UniProt P49841). In words: Inhibition of GSK3-beta.
For a further data set, the system named is Escherichia coli. In words: Antibacterial activity against Escherichia coli ATCC 8739. Type of data set: ADME, organism-based.
The next data set deals with Staphylococcus aureus. Put plainly: Antibacterial activity against Staphylococcus aureus Smith. Format: ADME, organism-based.

Each structure is given as a SMILES string. pIC50: −log10 of the molar value. Converted amounts (≈) assume the structure as drawn. A value given as a limit tells only on which side of the number the result lay.

Chain of Glycogen synthase kinase-3 beta (P49841 whole entry): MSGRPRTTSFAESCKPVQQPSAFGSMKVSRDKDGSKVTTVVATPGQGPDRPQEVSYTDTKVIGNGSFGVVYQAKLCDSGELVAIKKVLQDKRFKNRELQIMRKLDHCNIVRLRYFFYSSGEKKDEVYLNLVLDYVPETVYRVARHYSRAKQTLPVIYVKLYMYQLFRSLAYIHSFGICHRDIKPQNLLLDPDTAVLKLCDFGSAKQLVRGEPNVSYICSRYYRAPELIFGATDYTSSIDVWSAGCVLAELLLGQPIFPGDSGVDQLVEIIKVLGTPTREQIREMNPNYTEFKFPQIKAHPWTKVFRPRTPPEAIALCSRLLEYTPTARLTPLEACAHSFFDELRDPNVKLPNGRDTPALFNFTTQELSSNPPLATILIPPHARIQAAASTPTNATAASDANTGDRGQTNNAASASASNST

In data set [1], `C[C@H]1COc2c(NCCNc3ccccn3)c(F)c(N)c3c(=O)c(C#N)cn1c23` had a pIC50 of 9.24.
The same measure, in the same setting: the value for `C[C@H]1COc2c(NCCCc3ccccn3)c(F)c(N)c3c(=O)c(C(=N)NO)cn1c23` was 7.15.
On to `C[C@H]1COc2c(NCCCc3ccccc3)c(F)c(N)c3c(=O)c(C(=O)O)cn1c23`, for which the MIC was greater than 39 µM in the data set on Escherichia coli and 2 µM (≈ 0.823 µg/mL) with Staphylococcus aureus. In data set [1], the pIC50 was 7.40.
As to `C[C@H]1COc2c(NCCCc3ccccc3)c(F)c(N)c3c(=O)c(C#N)cn1c23`, the pIC50 in data set [1] is 8.85.
Turning to `C[C@H]1COc2c(NCCCn3ccnc3)c(F)c(N)c3c(=O)c(C#N)cn1c23`, the MIC in the data set on Escherichia coli and with Staphylococcus aureus was greater than 306 µM in each case. Further, the pIC50 in data set [1] is 9.00.
Take `C[C@H]1COc2c(NCCCc3ccccn3)c(F)c(N)c3c(=O)c(-c4nnn[nH]4)cn1c23`: the MIC against Escherichia coli was greater than 274 µM; against Staphylococcus aureus it was 69 µM (≈ 30.1 µg/mL). The compound also gave a pIC50 in data set [1] of 8.62.
As to `C[C@H]1COc2c(NCCCn3ccnc3)c(F)c(N)c3c(=O)c(-c4nnn[nH]4)cn1c23`, the MIC in the data set with Escherichia coli and against Staphylococcus aureus was greater than 257 µM each time. The compound also showed a pIC50 in data set [1] of 7.70.
As to `C[C@H]1COc2c(NCCNc3ccccn3)c(F)c(N)c3c(=O)c(C(=O)O)cn1c23`, the values for the MIC in the data set on Escherichia coli and in the data set with Staphylococcus aureus were 4 µM (≈ 1.65 µg/mL) and 2 µM (≈ 0.827 µg/mL), respectively.
For the compound `C[C@H]1COc2c(NCCCn3ccnc3)c(F)c(N)c3c(=O)c(C(=O)O)cn1c23`, the figures for the MIC against Escherichia coli and against Staphylococcus aureus were 16 µM (≈ 6.42 µg/mL) and 8 µM (≈ 3.21 µg/mL), respectively. The same compound gave a pIC50 in data set [1] of 6.82.
As for `C[C@H]1COc2c(NCCCn3ccnc3)c(F)c(N)c3c(=O)c(C(N)=O)cn1c23`, the MIC with Escherichia coli and in the data set with Staphylococcus aureus was greater than 249 µM throughout. This compound showed a pIC50 in data set [1] of 6.74.
For `C[C@H]1COc2c(NCCNc3ccccn3)c(F)c(N)c3c(=O)c(C(N)=O)cn1c23`, the MIC in the data set on Escherichia coli and with Staphylococcus aureus was greater than 285 µM each time. The compound further gave a pIC50 in data set [1] of 7.48.
For the compound `C[C@H]1COc2c(NCCCc3ccccc3)c(F)c(N)c3c(=O)c(C(N)=O)cn1c23`, the MIC with Escherichia coli is greater than 78 µM; against Staphylococcus aureus, 78 µM (≈ 32 µg/mL). The pIC50 in data set [1] was 7.17.
As to `C[C@H]1COc2c(NCCCn3ccnc3)c(F)c(N)c3c(=O)c(C(=N)NO)cn1c23`, the pIC50 in data set [1] is 6.85.
